Test system: Actinomadura verrucosospora A80577
Experiment: Resistance of the producing culture to antibiotic sensitivity discs on seeded ISP No. 2 agar plates
Assay type: cell-based
Details: culture A80577 on ISP No. 2 agar
Protocol: Resistance to antibiotics was measured by padding antibiotic sensitivity discs onto the surface of seeded ISP No. 2 agar plates.
A80577 was resistant to: bacitracin 10 units, cephalothin 30 µg, lincomycin 2 µg, oleandomycin 15 µg, penicillin G 10 units, rifampin 5 µg, and tetracycline 30 µg. It was sensitive to: gentamicin 10 µg, neomycin 30 µg, streptomycin 10 µg, tobramycin 10 µg and vancomycin 30 µg.

Compound: CO[C@H]1/C=C/O[C@@]2(C)Oc3c(C)c(O)c4c(O)c(c(/C=N/N5CCN(C)CC5)c(O)c4c3C2=O)NC(=O)/C(C)=C\C=C\[C@H](C)[C@H](O)[C@@H](C)[C@@H](O)[C@@H](C)[C@H](OC(C)=O)[C@@H]1C [rifampin]
- Resistance to antibiotics (sensitivity disc) (disc 5 µg): resistant

Compound: CO[C@H]1C[C@H](O[C@H]2[C@H](C)[C@@H](O[C@@H]3O[C@H](C)C[C@H](N(C)C)[C@H]3O)[C@@H](C)C[C@@]3(CO3)C(=O)[C@H](C)[C@@H](O)[C@@H](C)[C@@H](C)OC(=O)[C@@H]2C)O[C@@H](C)[C@@H]1O [oleandomycin]
- Resistance to antibiotics (sensitivity disc) (disc 15 µg): resistant

Compound: neomycin
- Resistance to antibiotics (sensitivity disc) (disc 30 µg): sensitive

Compound: CCC[C@@H]1C[C@@H](C(=O)N[C@@H]([C@H]2O[C@H](SC)[C@H](O)[C@@H](O)[C@H]2O)[C@@H](C)O)N(C)C1 [lincomycin]
- Resistance to antibiotics (sensitivity disc) (disc 2 µg): resistant

Compound: NC[C@H]1O[C@H](O[C@H]2[C@H](O)[C@@H](O[C@H]3O[C@H](CO)[C@@H](O)[C@H](N)[C@H]3O)[C@H](N)C[C@@H]2N)[C@H](N)C[C@@H]1O [tobramycin]
- Resistance to antibiotics (sensitivity disc) (disc 10 µg): sensitive

Compound: [H]/N=C(/N)N[C@H]1[C@H](O)[C@@H](O)[C@H](O[C@@H]2O[C@@H](C)[C@](O)(C=O)[C@H]2O[C@@H]2O[C@@H](CO)[C@H](O)[C@@H](O)[C@@H]2NC)[C@@H](N/C(N)=N\[H])[C@@H]1O [streptomycin]
- Resistance to antibiotics (sensitivity disc) (disc 10 µg): sensitive

Compound: bacitracin
- Resistance to antibiotics (sensitivity disc) (disc 10 units): resistant

Compound: gentamicin
- Resistance to antibiotics (sensitivity disc) (disc 10 µg): sensitive

Compound: CC1(C)S[C@@H]2[C@H](NC(=O)Cc3ccccc3)C(=O)N2[C@H]1C(=O)O [penicillin G]
- Resistance to antibiotics (sensitivity disc) (disc 10 units): resistant

Compound: CN[C@H](CC(C)C)C(=O)N[C@H]1C(=O)N[C@@H](CC(N)=O)C(=O)N[C@H]2C(=O)N[C@H]3C(=O)N[C@H](C(=O)N[C@H](C(=O)O)c4cc(O)cc(O)c4-c4cc3ccc4O)[C@H](O)c3ccc(c(Cl)c3)Oc3cc2cc(c3O[C@@H]2O[C@H](CO)[C@@H](O)[C@H](O)[C@H]2O[C@H]2C[C@](C)(N)[C@H](O)[C@H](C)O2)Oc2ccc(cc2Cl)[C@H]1O [vancomycin]
- Resistance to antibiotics (sensitivity disc) (disc 30 µg): sensitive

Compound: CC(=O)OCC1=C(C(=O)O)N2C(=O)[C@@H](NC(=O)Cc3cccs3)[C@H]2SC1 [cephalothin]
- Resistance to antibiotics (sensitivity disc) (disc 30 µg): resistant

From patent EP0305086A2, “Antibiotic A80577 and process for its production” (ELI LILLY AND COMPANY, priority 1987, dated 1989)
